Experimental data from patent US12528761B2, “Thyromimetics” (Autobahn Therapeutics, Inc., priority 2020, dated 2026).
Where two headings read alike, the source gives them in different places.

Assays:
[1] = molecular target: T1, TRα (Homo sapiens, UniProt P10827); test: TR reporter-gene assay (Gal4 DBD hybrid, luciferase), TRα; type: cell-based
T1 construct: expressed in transfected cells; host or cells: HEK293
T1 sequence (P10827 1-410 isoform P10827-2): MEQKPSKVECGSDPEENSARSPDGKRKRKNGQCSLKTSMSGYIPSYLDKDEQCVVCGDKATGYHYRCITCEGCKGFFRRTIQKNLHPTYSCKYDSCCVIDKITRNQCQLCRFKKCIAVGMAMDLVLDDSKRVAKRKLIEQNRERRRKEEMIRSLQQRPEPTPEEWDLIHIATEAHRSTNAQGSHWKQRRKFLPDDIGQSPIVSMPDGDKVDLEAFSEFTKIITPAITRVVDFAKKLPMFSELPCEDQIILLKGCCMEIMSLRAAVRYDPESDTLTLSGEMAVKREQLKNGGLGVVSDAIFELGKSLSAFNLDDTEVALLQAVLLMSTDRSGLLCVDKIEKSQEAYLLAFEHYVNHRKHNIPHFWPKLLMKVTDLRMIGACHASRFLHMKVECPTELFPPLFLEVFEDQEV
How it was run: (§1)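 HEK293 reporter cells expressing Gal4-DBD/TR ligand-binding hybrids driving firefly luciferase from a Gal4 UAS; cells pre-incubated 6 h, then treated 24 h at 37 °C in medium with 10% charcoal-stripped FBS (final DMSO 0.1–0.4%), in duplicate. Read-out was luminescence (RLU).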

[2] = molecular target: T2, TRβ (Homo sapiens, UniProt P10828); test: TR reporter-gene assay (Gal4 DBD hybrid, luciferase), TRβ; type: cell-based
T2 construct: expressed in transfected cells; host or cells: HEK293
T2 sequence (P10828 217-461 limits assumed): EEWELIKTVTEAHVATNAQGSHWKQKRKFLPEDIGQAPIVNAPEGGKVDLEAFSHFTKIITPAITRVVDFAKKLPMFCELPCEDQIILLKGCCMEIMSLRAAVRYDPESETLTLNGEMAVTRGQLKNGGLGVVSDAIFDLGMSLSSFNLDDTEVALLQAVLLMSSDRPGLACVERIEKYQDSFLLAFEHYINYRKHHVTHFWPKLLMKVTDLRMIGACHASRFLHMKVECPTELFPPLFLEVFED
How it was run: as §1

[3] = HEK293-derived reporter cells, 24 hr treatment, read-out: TRα EC50
[4] = HEK293-derived reporter cells, 24 hr treatment, read-out: TRβ EC50

| Compound | EC50 [1, 3] | EC50 [2, 4] | T3-SI (selectivity index, EC50 (TRα)/EC50 (TRβ)) ([2]; class symbols) | T3-SI (selectivity index, EC50 (TRα)/EC50 (TRβ)) ([2]; given as a number) | EC50 [1] | EC50 [2] |
| --- | --- | --- | --- | --- | --- | --- |
| CC(C)c1cc(Cc2c(Cl)cc(CCC(=O)O)c(F)c2Cl)ccc1O [Compound 65, 3-(3,5-dichloro-2-fluoro-4-(4-hydroxy-3-isopropylbenzyl)phenyl)propanoic acid] | 10 to 100 nM | 10 to 100 nM | ++ (3× < T3-SI ≤ 30×) | – | – | – |
| CC(C)c1c(O)ccc(Cc2c(Cl)cc(OCCCCC(=O)O)cc2Cl)c1F [Compound 54, 5-(3,5-dichloro-4-(2-fluoro-4-hydroxy-3-isopropylbenzyl)phenoxy)pentanoic acid] | 10 to 100 nM | 10 to 100 nM | + (T3-SI ≤ 3×) | – | – | – |
| Cc1c(F)c(NCC(=O)O)cc(Cl)c1Cc1ccc(O)c(C(C)C)c1 [Compound 223, (5-chloro-2-fluoro-4-(4-hydroxy-3-isopropylbenzyl)-3-methylphenyl)glycine] | 10 to 100 nM | 10 to 100 nM | ++ (3× < T3-SI ≤ 30×) | – | – | – |
| CC(C)c1cc(Cc2c(Cl)cc(S(=O)(=O)CC(=O)O)cc2Cl)ccc1O [Compound 93, 2-((3,5-dichloro-4-(4-hydroxy-3-isopropylbenzyl)phenyl)sulfonyl)acetic acid] | > 1000 nM | > 1000 nM | ++ (3× < T3-SI ≤ 30×) | – | – | – |
| CC(C)c1c(O)ccc(Cc2c(Cl)cc(CCC(=O)O)c(F)c2Cl)c1F [Compound 71, 3-(3,5-dichloro-2-fluoro-4-(2-fluoro-4-hydroxy-3-isopropylbenzyl)phenyl)propanoic acid] | 10 to 100 nM | 10 to 100 nM | ++ (3× < T3-SI ≤ 30×) | – | – | – |
| Cc1c(F)c(CNCC(=O)O)cc(Cl)c1Cc1ccc(O)c(C(C)C)c1 [Compound 221, (5-chloro-2-fluoro-4-(4-hydroxy-3-isopropylbenzyl)-3-methylbenzyl)glycine] | 100 to 1000 nM | 100 to 1000 nM | ++ (3× < T3-SI ≤ 30×) | – | – | – |
| C/C(=C\c1cc(Cl)c(Cc2ccc(O)c(C(C)C)c2)c(C)c1F)C(=O)O [Compound 128, (E)-3-(5-chloro-2-fluoro-4-(4-hydroxy-3-isopropylbenzyl)-3-methylphenyl)-2-methylacrylic acid] | 10 to 100 nM | 10 to 100 nM | ++ (3× < T3-SI ≤ 30×) | – | – | – |
| CC(C)c1cc(Cc2c(Cl)cc(NCC(=O)O)c(F)c2Cl)ccc1O [Compound 75, (3,5-dichloro-2-fluoro-4-(4-hydroxy-3-isopropylbenzyl)phenyl)glycine] | 10 to 100 nM | 10 to 100 nM | ++ (3× < T3-SI ≤ 30×) | – | – | – |
| Cc1cc(SCC(=O)O)cc(Cl)c1Cc1ccc(O)c(C(C)C)c1 [Compound 123, 2-((3-chloro-4-(4-hydroxy-3-isopropylbenzyl)-5-methylphenyl)thio)acetic acid] | 100 to 1000 nM | 100 to 1000 nM | ++ (3× < T3-SI ≤ 30×) | – | – | – |
| CC(C)c1c(O)ccc(Cc2c(Cl)cc(CC(=O)O)cc2Cl)c1F [Compound 32, 2-(3,5-dichloro-4-(2-fluoro-4-hydroxy-3-isopropylbenzyl)phenyl)acetic acid] | – | – | ++ (3× < T3-SI ≤ 30×) | – | 10 to 100 nM | < 10 nM |
| Cc1cc(NCC(=O)O)cc(Cl)c1Cc1ccc(O)c(C(C)C)c1F [Compound 247, (3-chloro-4-(2-fluoro-4-hydroxy-3-isopropylbenzyl)-5-methylphenyl)glycine] | 10 to 100 nM | 10 to 100 nM | ++ (3× < T3-SI ≤ 30×) | – | – | – |
| Cc1cc(CSCC(=O)O)c(F)c(Cl)c1Cc1ccc(O)c(C(C)C)c1 [Compound 224, 2-((3-chloro-2-fluoro-4-(4-hydroxy-3-isopropylbenzyl)-5-methylbenzyl)thio)acetic acid] | 100 to 1000 nM | 100 to 1000 nM | ++ (3× < T3-SI ≤ 30×) | – | – | – |
| Cc1cc(NCC(=O)O)cc(Cl)c1Cc1ccc(O)c(C(C)C)c1 [Compound 125, (3-chloro-4-(4-hydroxy-3-isopropylbenzyl)-5-methylphenyl)glycine] | 10 to 100 nM | 10 to 100 nM | ++ (3× < T3-SI ≤ 30×) | – | – | – |
| CC(C)c1cc(Cc2c(Cl)cc(CS(=O)(=O)CC(=O)O)cc2Cl)ccc1O [Compound 97, 2-((3,5-dichloro-4-(4-hydroxy-3-isopropylbenzyl)benzyl)sulfonyl)acetic acid] | > 1000 nM | > 1000 nM | ++ (3× < T3-SI ≤ 30×) | – | – | – |
| CC(C)c1c(O)ccc(Cc2c(Cl)cc(CNCC(=O)O)c(F)c2Cl)c1F [Compound 153, (3,5-dichloro-2-fluoro-4-(2-fluoro-4-hydroxy-3-isopropylbenzyl)benzyl)glycine] | 10 to 100 nM | 10 to 100 nM | ++ (3× < T3-SI ≤ 30×) | – | – | – |

Second part, led by results:

| EC50 [1, 3] | EC50 [2, 4] | T3-SI (selectivity index, EC50 (TRα)/EC50 (TRβ)) ([2]; class symbols) | T3-SI (selectivity index, EC50 (TRα)/EC50 (TRβ)) ([2]; given as a number) | Compound | EC50 [1] | EC50 [2] |
| --- | --- | --- | --- | --- | --- | --- |
| < 10 nM | < 10 nM | + (T3-SI ≤ 3×) | – | CC(C)c1c(O)ccc(Cc2c(Cl)cc(/C=C/C(=O)O)cc2Cl)c1F [Compound 88, (E)-3-(3,5-dichloro-4-(2-fluoro-4-hydroxy-3-isopropylbenzyl)phenyl)acrylic acid] | – | – |
| 100 to 1000 nM | 100 to 1000 nM | ++ (3× < T3-SI ≤ 30×) | – | C/C(=C\c1cc(Cl)c(Cc2ccc(O)c(C(C)C)c2)c(Cl)c1)C(=O)O [Compound 102, (E)-3-(3,5-dichloro-4-(4-hydroxy-3-isopropylbenzyl)phenyl)-2-methylacrylic acid] | – | – |
| 100 to 1000 nM | 100 to 1000 nM | – | 7.15 | CC(C)c1c(O)ccc(Cc2c(Cl)cc(NC(=O)C(=O)O)cc2Cl)c1F [Compound 213, 2-((3,5-dichloro-4-(2-fluoro-4-hydroxy-3-isopropylbenzyl)phenyl)amino)-2-oxoacetic acid] | – | – |
| < 10 nM | < 10 nM | ++ (3× < T3-SI ≤ 30×) | – | C/C(=C\c1cc(Cl)c(Cc2ccc(O)c(C(C)C)c2F)c(Cl)c1)C(=O)O [Compound 205, (E)-3-(3,5-dichloro-4-(2-fluoro-4-hydroxy-3-isopropylbenzyl)phenyl)-2-methylacrylic acid] | – | – |
| > 1000 nM | 100 to 1000 nM | + (T3-SI ≤ 3×) | – | CC(C)c1c(O)ccc(Cc2c(Cl)cc(CC(N)C(=O)O)cc2Cl)c1F (stereo not drawn) [Compound 207, 2-amino-3-(3,5-dichloro-4-(2-fluoro-4-hydroxy-3-isopropylbenzyl)phenyl)propanoic acid] | – | – |
| 10 to 100 nM | 10 to 100 nM | ++ (3× < T3-SI ≤ 30×) | – | CONC(=O)CCc1cc(Cl)c(Cc2ccc(O)c(C(C)C)c2F)c(Cl)c1 [Compound 106, 3-(3,5-dichloro-4-(2-fluoro-4-hydroxy-3-isopropylbenzyl)phenyl)-N-methoxypropanamide] | – | – |
| 100 to 1000 nM | 100 to 1000 nM | + (T3-SI ≤ 3×) | – | CC(C)c1c(O)ccc(Cc2c(Cl)cc(OCCCC(=O)O)cc2Cl)c1F [Compound 52, 4-(3,5-dichloro-4-(2-fluoro-4-hydroxy-3-isopropylbenzyl)phenoxy)butanoic acid] | – | – |
